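Dose response: 5 concentrations. Exposure: 48 h. Format: 96-well plates. Endpoint: linear interpolation; highest concentration if not reached. Abbreviation: GI50, concentration required for 50% inhibition of growth. At the TGI there is no net growth.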
Columns and labels:
Experiment in all cases: DTP human tumour cell line panel, 48 h
SNB-75 CNS = tested on: SNB-75 CNS
IGROV1 ovarian = tested on: IGROV1 ovarian
HCT-15 colon = tested on: HCT-15 colon
SK-MEL-2 melanoma = tested on: SK-MEL-2 melanoma
EKVX NSCLC = tested on: EKVX NSCLC
OVCAR-8 ovarian = tested on: OVCAR-8 ovarian
COLO 205 colon = tested on: COLO 205 colon
U251 CNS = tested on: U251 CNS
SK-OV-3 ovarian = tested on: SK-OV-3 ovarian
LOX IMVI melanoma = tested on: LOX IMVI melanoma

For O=c1cnn2c(n1)sc1ccc3ccccc3c12, the TGI (SNB-75 CNS) was > 100 µM, the TGI (IGROV1 ovarian) was > 100 µM and the TGI (HCT-15 colon) was > 100 µM. For the same compound, the TGI (SK-MEL-2 melanoma) was > 100 µM, the TGI (EKVX NSCLC) was > 100 µM and the TGI (OVCAR-8 ovarian) was > 100 µM. For the same compound, the TGI (COLO 205 colon) was > 100 µM, the TGI (U251 CNS) was > 100 µM and the TGI (SK-OV-3 ovarian) was > 100 µM. The TGI (LOX IMVI melanoma) was > 100 µM.
In the case of N#CCCN(c1ccc(-c2nnc(NC(=O)CNNC(=O)CC(=O)Nc3ccccc3)s2)cc1)S(=O)(=O)c1ccccc1, the TGI (SNB-75 CNS) is reported as > 100 µM, the TGI (IGROV1 ovarian) is reported as > 100 µM and the TGI (HCT-15 colon) is reported as > 100 µM. The TGI (SK-MEL-2 melanoma) was > 100 µM, the TGI (EKVX NSCLC) was > 100 µM and the TGI (OVCAR-8 ovarian) was > 100 µM. For the same compound, the TGI (COLO 205 colon) was > 100 µM, the TGI (U251 CNS) was > 100 µM and the TGI (SK-OV-3 ovarian) was > 100 µM. For the same compound, the TGI (LOX IMVI melanoma) was > 100 µM.
Compound CCCCCCCC[N+](C)(CCCCCCCC)CCCCCCCC has a GI50 (SNB-75 CNS) of 0.489 µM, a TGI (SNB-75 CNS) of 1.42 µM and a GI50 (IGROV1 ovarian) of 0.347 µM. For the same compound, the TGI (IGROV1 ovarian) was 1.91 µM, the GI50 (HCT-15 colon) was 0.715 µM and the TGI (HCT-15 colon) was 2.1 µM. The GI50 (SK-MEL-2 melanoma) was 0.356 µM, the TGI (SK-MEL-2 melanoma) was 8.81 µM and the GI50 (EKVX NSCLC) was 0.19 µM. For the same compound, the TGI (EKVX NSCLC) was 0.788 µM, the GI50 (OVCAR-8 ovarian) was 0.411 µM and the TGI (OVCAR-8 ovarian) was 1.46 µM. The GI50 (COLO 205 colon) was 0.169 µM, the TGI (COLO 205 colon) was 0.361 µM and the GI50 (U251 CNS) was 0.324 µM. It also gave a TGI (U251 CNS) of 1.31 µM, a GI50 (SK-OV-3 ovarian) of 0.468 µM and a TGI (SK-OV-3 ovarian) of 1.71 µM. The GI50 (LOX IMVI melanoma) was 0.247 µM and the TGI (LOX IMVI melanoma) was 0.709 µM.
CN(C)CCCc1c[nH]c2ccccc12 was tested, and the TGI (SNB-75 CNS) was > 100 µM, the TGI (IGROV1 ovarian) was > 100 µM and the TGI (HCT-15 colon) was > 100 µM. For the same compound, the TGI (SK-MEL-2 melanoma) was > 100 µM, the TGI (EKVX NSCLC) was > 100 µM and the TGI (OVCAR-8 ovarian) was > 100 µM. For the same compound, the TGI (COLO 205 colon) was > 100 µM, the TGI (U251 CNS) was > 100 µM and the TGI (SK-OV-3 ovarian) was > 100 µM. For the same compound, the TGI (LOX IMVI melanoma) was > 100 µM.
With CCCN(CCC)c1ccc(/C=N/NC(=O)c2cccnc2)c(Cl)c1 the GI50 (SNB-75 CNS) was 11.4 µM, the TGI (SNB-75 CNS) was 39.9 µM and the GI50 (IGROV1 ovarian) was 1.21 µM. The TGI (IGROV1 ovarian) was 15.6 µM, the GI50 (HCT-15 colon) was 7.87 µM and the TGI (HCT-15 colon) was 34.4 µM. The GI50 (SK-MEL-2 melanoma) was 14.2 µM, the TGI (SK-MEL-2 melanoma) was 30.4 µM and the GI50 (EKVX NSCLC) was 17 µM. For the same compound, the TGI (EKVX NSCLC) was 71.4 µM, the GI50 (OVCAR-8 ovarian) was 18.1 µM and the TGI (OVCAR-8 ovarian) was 53.7 µM. The GI50 (COLO 205 colon) was 6.29 µM, the TGI (COLO 205 colon) was 22.3 µM and the GI50 (U251 CNS) was 4.78 µM. The TGI (U251 CNS) was 20.6 µM, the GI50 (SK-OV-3 ovarian) was 13.9 µM and the TGI (SK-OV-3 ovarian) was 45.5 µM. The GI50 (LOX IMVI melanoma) was 11.2 µM and the TGI (LOX IMVI melanoma) was 24.9 µM.
In the case of COc1ccc2c(c1)CC[C@@H]1[C@@H]2CC[C@]2(C)C(c3ccco3)=C(C=O)C[C@@H]12, the GI50 (SNB-75 CNS) is reported as 27.9 µM, the TGI (SNB-75 CNS) is reported as > 100 µM and the GI50 (IGROV1 ovarian) is reported as 27 µM. The TGI (IGROV1 ovarian) was 78 µM, the GI50 (HCT-15 colon) was 4.19 µM and the TGI (HCT-15 colon) was 26.7 µM. It also gave a GI50 (SK-MEL-2 melanoma) of 29.2 µM, a TGI (SK-MEL-2 melanoma) of 88.1 µM and a GI50 (EKVX NSCLC) of 20.1 µM. For the same compound, the TGI (EKVX NSCLC) was 48.7 µM, the GI50 (OVCAR-8 ovarian) was 31.1 µM and the TGI (OVCAR-8 ovarian) was 74.2 µM. For the same compound, the GI50 (COLO 205 colon) was 3.58 µM, the TGI (COLO 205 colon) was > 100 µM and the GI50 (U251 CNS) was 4.13 µM. It also gave a TGI (U251 CNS) of 18.1 µM, a GI50 (SK-OV-3 ovarian) of 28.9 µM and a TGI (SK-OV-3 ovarian) of 77.7 µM. The GI50 (LOX IMVI melanoma) was 6.89 µM and the TGI (LOX IMVI melanoma) was 23.8 µM.
For Nc1ncnc2c1ncn2C1OC(CO)=CC1O (centres undefined), the TGI (SNB-75 CNS) was > 37.5 µM, the TGI (IGROV1 ovarian) was > 37.5 µM and the TGI (HCT-15 colon) was > 37.5 µM. For the same compound, the TGI (SK-MEL-2 melanoma) was > 37.5 µM, the TGI (EKVX NSCLC) was > 37.5 µM and the TGI (OVCAR-8 ovarian) was > 37.5 µM. For the same compound, the TGI (COLO 205 colon) was > 37.5 µM, the TGI (U251 CNS) was > 37.5 µM and the TGI (SK-OV-3 ovarian) was > 37.5 µM. The TGI (LOX IMVI melanoma) was > 37.5 µM.
For CCOC(=O)c1cn(Cc2ccccc2)c(=O)n1Cc1ccccc1, the TGI (SNB-75 CNS) was > 100 µM, the TGI (IGROV1 ovarian) was > 100 µM and the TGI (HCT-15 colon) was > 100 µM. The TGI (SK-MEL-2 melanoma) was > 100 µM, the TGI (EKVX NSCLC) was > 100 µM and the TGI (OVCAR-8 ovarian) was > 100 µM. For the same compound, the TGI (COLO 205 colon) was > 100 µM, the TGI (U251 CNS) was > 100 µM and the TGI (SK-OV-3 ovarian) was > 100 µM. For the same compound, the TGI (LOX IMVI melanoma) was > 100 µM.
In the case of O=C(NC1=NC2C=CC([N+](=O)[O-])=CC2S1)C(=O)Nn1c(=S)[nH]c2ccccc2c1=O (centres undefined), the TGI (SNB-75 CNS) is reported as > 100 µM, the TGI (IGROV1 ovarian) is reported as > 100 µM and the TGI (HCT-15 colon) is reported as > 100 µM. The TGI (SK-MEL-2 melanoma) was > 100 µM, the TGI (EKVX NSCLC) was > 100 µM and the TGI (OVCAR-8 ovarian) was > 100 µM. The TGI (U251 CNS) was > 100 µM, the TGI (SK-OV-3 ovarian) was > 100 µM and the TGI (LOX IMVI melanoma) was > 100 µM.
